Source: US11633394B2, “Substituted alkynylene compounds as anticancer agents” (Aurigene Oncology Limited, priority 2018, dated 2023)

What was measured:
Assay type in all cases: cell-based
OCI-Ly10 cells = assay: Anti proliferative activity in OCI-Ly10 cells (CTG luminescence); conditions: Homo sapiens, OCI-Ly10, 72 h
Description: Example 80: Determination of Anti Proliferative Activity in OCI-Ly10 Cells
OCI-Ly10 cells (UHN Canada) were plated at 7500 cells/well in 96 well flat bottom plates (Corning, Cat. No CLS3904) using complete Iscove's Modified Dulbecco's Medium (IMDM. After 6 hours, compounds from the present invention were added to the cells from 10 mM stocks made in DMSO (Sigma, Cat. No D2650). Each concentration of compound was tested in triplicates with DMSO concentration not exceeding a final percentage of 0.1 in the cells. After 72 hours of incubation in CO2 incubator, CTG (Promega, Cat. No G7572) was added to the wells and Luminescence readings were taken in the plate reader. Percent inhibition in proliferation was calculated using Microsoft Excel software. Positive control (100% survival)=Cells in complete media with 0.1% DMSO; Negative control/blank (0% survival)=Media alone containing 0.1% DMSO.

NCI-H2122 cells = assay: Anti proliferative activity in NCI-H2122 cells by XTT assay; conditions: Homo sapiens, NCI-H2122, 192 h, H2122 cell line, at 30 μM, 8 days
Description: Example 79: Determination of Anti Proliferative Activity in NCI-H2122 Cells by XTT Assay
NCI-H2122 cells (ATCC CRL-5985) were plated at 1000 cells/well in 96 well flat clear bottom plates (Corning, Cat. No 3596) using complete RPMI-1640 media. After 24 hours, compounds of present invention were added to cells from 10 mM stocks made in DMSO (Sigma Cat no. D2650). Each concentration of compound was tested in triplicate with DMSO concentration not exceeding a final percentage of 0.3 in the cells. Complete RPMI-1640 media changed at Day 3 (72 hour) and Day 6 (144 hour) along with compounds of current invention. After 8 days (192 hour) of incubation assay terminated using 50 μl of XTT reagent (Invitrogen, Cat. no X6493). XTT reagent was made by dissolving 1 mg/mi XTT in serum free media with addition of 25 μM Phenazine methosulfate (sigma Cat. no P9625). Absorbance readings were taken in spectrophotometer at 465 nm. The data was analysed using graph pad prism software. Positive control (100% survival)=Cells in complete media with 0.3% DMSO; Negative control/blank (0% survival)=Media alone containing 0.3% DMSO.
(§1) The compounds of the present invention were screened in the above mentioned assay and the results are tabulated below.

NCI-H1792 cells = assay: Anti proliferative activity in NCI-H1792 cells by XTT assay; conditions: Homo sapiens, NCI-H1792, 72 h, H1792 cell line
Description: Example 78: Determination of Anti Proliferative Activity in NCI-H1792 Cells by XTT Assay
NCI-H1792 cells (ATCC CRL-5895) were plated at 2000 cells/well in 96 well flat clear bottom plates (Corning, Cat. No 3596) using complete RPMI media. After 24 hours, compounds of present invention were added to cells from 20 mM stocks made in DMSO (Sigma Cat no. D2650). Each concentration of compound was tested in triplicate with DMSO concentration not exceeding a final percentage of 0.3 in the cells. After 72 hours of incubation in CO2 incubator, XTT (Invitrogen, Cat. no X6493) was added to the wells. XTT was dissolved in serum free media at 1 mg/ml and absorbance readings were taken in spectrophotometer at 465 nm. The data was analysed using graph pad prism software. Positive control (100% survival)=Cells in complete media with 0.3% DMSO; Negative control/blank (0% survival)=Media alone containing 0.3% DMSO.
as §1

IC50 (NCI-H1792 cells; 72 hours incubation): < 10 µM
Compound: C=CS(=O)(=O)N[C@H]1CC[C@@H](NC(=O)NC(C)C#Cc2ccc(Cl)c(Cl)c2)CC1 (mixture of isomers) [Example 50, N-((1s, 4s)-4-(3-(4-(3,4-dichlorophenyl)but-3-yn-2-yl)ureido)cyclohexyl) ethenesulfonamide]
inhibition at 1 µM (OCI-Ly10 cells; at 1 μM): 32%
inhibition at 10 µM (OCI-Ly10 cells; at 10 μM): 48%
viability at 30 µM (NCI-H2122 cells): 1%
viability at 30 µM (NCI-H1792 cells; at 30 μM, 72 hours): 17%
